In this test the target is fully phosphorylated, active Mouse ERK2 protein (Mus musculus (Mouse), UniProt P63085). As to the kind of experiment: Active ERK2 (aERK) IMAP assay. Format: biochemical. The following applies: IMAP fluorescence polarization; 30 μM ATP; 30 minute pre-incubation. On the procedure: 14 μl of kinase buffer (10 mM Tris.HCl pH 7.2, 10 mM MgCl2, 0.01% Tween-20, 1 mM DTT) containing 0.4 ng unphosphorylated Mouse ERK2 protein was added to each well of a black 384-well assay plate. […] DMSO concentration during initial incubation is 6.7%. […] DMSO concentration during ERK activation was 4%. After one hour, reactions were terminated by addition of 60 μl IMAP detections beads in binding buffer (Molecular Devices). Binding was allowed to equilibrate for 30 minutes before reading the plate on an LJL Analyst Fluorescence Polarization plate reader.
Chain of fully phosphorylated, active Mouse ERK2 protein (P63085 whole entry): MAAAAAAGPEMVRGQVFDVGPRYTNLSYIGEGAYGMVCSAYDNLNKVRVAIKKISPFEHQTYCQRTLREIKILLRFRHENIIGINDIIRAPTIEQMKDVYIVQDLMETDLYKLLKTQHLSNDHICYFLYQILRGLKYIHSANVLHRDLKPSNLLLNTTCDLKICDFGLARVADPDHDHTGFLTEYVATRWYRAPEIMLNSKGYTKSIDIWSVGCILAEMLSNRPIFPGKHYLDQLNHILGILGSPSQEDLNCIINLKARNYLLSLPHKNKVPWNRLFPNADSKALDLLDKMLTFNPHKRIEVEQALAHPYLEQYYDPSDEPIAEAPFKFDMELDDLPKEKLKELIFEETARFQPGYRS
Active ERK2 (aERK) Assay:
Activated ERK2 activity was also determined in the IMAP assay format using the procedure outlined above. […] Reactions proceeded for 30 minutes before termination by addition of 60 μl IMAP detection beads in binding buffer. Plates were read as above after 30 minute binding equilibration.
In general terms: In fluorescence polarisation assays a small probe gives low polarisation when free and higher when bound to something large.
The IC50 is the point on the concentration scale where inhibition reaches its midpoint. As to `Cc1cc(-c2n[nH]c3ccc(C(=O)N[C@@H]4CCC[C@@](O)(Cn5cnc6ncccc65)C4)cc23)ccn1` (relative stereo) [compound 81, N-[cis-3-hydroxy-3-(1H-imidazo[4,5-b]pyridin-1-ylmethyl)cyclohexyl]-3-(2-methyl-4-pyridinyl)-1H-indazole-5-carboxamide], the midpoint of inhibition, the IC50, lay at 825 nM.

`Cc1cc(-c2n[nH]c3ccc(C(=O)N[C@@H]4CCC[C@@](O)(Cn5cnc6cccnc65)C4)cc23)ccn1` (relative stereo) [compound 82, N-[cis-3-hydroxy-3-(3H-imidazo[4,5-b]pyridin-3-ylmethyl)cyclohexyl]-3-(2-methyl-4-pyridinyl)-1H-indazole-5-carboxamide] had an IC50 of 97.6 nM.

On to `Cc1cc(-c2n[nH]c3ccc(C(=O)N[C@@H]4CCC[C@](O)(Cn5ncccc5=O)C4)cc23)ccn1` (relative stereo) [compound 83, N-[trans-3-hydroxy-3-[(6-oxo-1(6h)-pyridazinyl)methyl]cyclohex-yl]-3-(2-methyl-4-pyridinyl)-1H-indazole-5-carboxamide], for which inhibition was half-maximal at 1000 nM (IC50).

Compound `Cc1cc(-c2n[nH]c3ccc(C(=O)N[C@@H]4CCC[C@@](O)(Cn5ncccc5=O)C4)cc23)ccn1` (relative stereo) [compound 84, N-[cis-3-hydroxy-3-[(6-oxo-1(6h)-pyridazinyl)methyl]cyclohex-yl]-3-(2-methyl-4-pyridinyl)-1H-indazole-5-carboxamide] came in with an IC50 of 1000 nM.

Compound `O=C(N[C@@H]1CCC[C@](O)(Cn2ccccc2=O)C1)c1ccc2[nH]nc(-c3ccc4nccn4c3)c2c1` (relative stereo) [compound 85, N-[trans-3-hydroxy-3-[(2-oxo-1(2h)-pyridinyl)methyl]cyclohexyl]-3-imidazo[1,2-a]pyridiN-6-yl-1H-indazole-5-carboxamide] gave an IC50 of 1000 nM.

`Cc1cc(-c2n[nH]c3ccc(C(=O)N[C@@H]4CCC[C@](O)(Cn5ncc6cnccc65)C4)cc23)ccn1` (relative stereo) [compound 87, N-[trans-3-hydroxy-3-(1H-pyrazolo[4,3-c]pyridin-1-ylmethyl)cyclohexyl]-3-(2-methyl-4-pyridinyl)-1H-indazole-5-carboxamide]: it took 410 nM to reach half-maximal inhibition (IC50).

`Cc1cc(-c2n[nH]c3ccc(C(=O)N[C@@H]4CCC[C@](O)(CN5C(=O)Cc6ccccc65)C4)cc23)ccn1` (relative stereo) [compound 88, N-[trans-3-[(2,3-dihydro-2-oxo-1H-indol-1-yl)methyl]-3-hydroxycyclohexyl]-3-(2-methyl-4-pyridinyl)-1H-indazole-5-carboxamide] gave an IC50 of 497 nM.

The compound `Cc1cc(-c2n[nH]c3ccc(C(=O)N[C@@H]4CCC[C@](O)(Cn5c(=O)ccc6ccccc65)C4)cc23)ccn1` (relative stereo) [compound 89, N-[trans-3-hydroxy-3-[(2-oxo-1(2h)-quinolinyl)methyl]cyclohex-yl]-3-(2-methyl-4-pyridinyl)-1H-indazole-5-carboxamide] returned an IC50 of 714 nM.

For `Cc1cc(-c2n[nH]c3ccc(C(=O)N[C@@H]4CCC[C@](O)(Cn5cc6ccccc6n5)C4)cc23)ccn1` (relative stereo) [compound 90, N-[trans-3-hydroxy-3-(2H-indazol-2-ylmethyl)cyclohexyl]-3-(2-methyl-4-pyridinyl)-1H-indazole-5-carboxamide], the IC50 was determined as 27.4 nM.

In the case of `Cc1cc(-c2n[nH]c3ccc(C(=O)N[C@@H]4CCC[C@@](O)(Cn5ncc6cnccc65)C4)cc23)ccn1` (relative stereo) [compound 91, N-[cis-3-hydroxy-3-(1H-pyrazolo[4,3-c]pyridin-1-ylmethyl)cyclohexyl]-3-(2-methyl-4-pyridinyl)-1H-indazole-5-carboxamide], the concentration for half-maximal inhibition (IC50) turned out to be 563 nM.

In the case of `Cc1cc(-c2n[nH]c3ccc(C(=O)N[C@@H]4CCC[C@@](O)(CN5C(=O)Cc6ccccc65)C4)cc23)ccn1` (relative stereo) [compound 92, N-[cis-3-[(2,3-dihydro-2-oxo-1H-indol-1-yl)methyl]-3-hydroxycyclohexyl]-3-(2-methyl-4-pyridinyl)-1H-indazole-5-carboxamide], the IC50 is 10.8 nM.

In turn, `Cc1cc(-c2n[nH]c3ccc(C(=O)N[C@@H]4CCC[C@@](O)(Cn5c(=O)ccc6ccccc65)C4)cc23)ccn1` (relative stereo) [compound 93, N-[cis-3-hydroxy-3-[(2-oxo-1(2h)-quinolinyl)methyl]cyclohex-yl]-3-(2-methyl-4-pyridinyl)-1H-indazole-5-carboxamide] displayed an IC50 of 165 nM.

For the compound `Cc1cc(-c2n[nH]c3ccc(C(=O)N[C@@H]4CCC[C@@](O)(Cn5cc6ccccc6n5)C4)cc23)ccn1` (relative stereo) [compound 94, N-[cis-3-hydroxy-3-(2H-indazol-2-ylmethyl)cyclohexyl]-3-(2-methyl-4-pyridinyl)-1H-indazole-5-carboxamide], the IC50 was 35 nM.

Compound `Cc1cc(-c2n[nH]c3ccc(C(=O)N[C@H]4CCC[C@@](O)(Cn5cc(C#N)c6ccccc65)C4)cc23)ccn1` (relative stereo) [compound 95, N-[trans-3-[(3-cyano-1H-indol-1-yl)methyl]-3-hydroxycyclohexyl]-3-(2-methyl-4-pyridinyl)-1H-indazole-5-carboxamide] showed an IC50 of 1000 nM.

Compound `Cc1cc(-c2n[nH]c3ccc(C(=O)N[C@H]4CCC[C@@](O)(Cn5ncc6c(F)cccc65)C4)cc23)ccn1` (relative stereo) [compound 96, N-[trans-3-[(4-fluoro-1H-indazol-1-yl)methyl]-3-hydroxycyclohexyl]-3-(2-methyl-4-pyridinyl)-1H-indazole-5-carboxamide] gave a half-inhibitory concentration (IC50) of 577 nM.

`Cc1cc(-c2n[nH]c3ccc(C(=O)N[C@H]4CCC[C@@](O)(Cn5cc6c(F)cccc6n5)C4)cc23)ccn1` (relative stereo) [compound 97, N-[trans-3-[(4-fluoro-2H-indazol-2-yl)methyl]-3-hydroxycyclohexyl]-3-(2-methyl-4-pyridinyl)-1H-indazole-5-carboxamide] gave an IC50 of 1000 nM.

In turn, `Cc1cc(-c2n[nH]c3ccc(C(=O)N[C@H]4CCC[C@@](O)(Cn5ncc6cc(F)ccc65)C4)cc23)ccn1` (relative stereo) [compound 98, N-[trans-3-[(5-fluoro-1H-indazol-1-yl)methyl]-3-hydroxycyclohexyl]-3-(2-methyl-4-pyridinyl)-1H-indazole-5-carboxamide] showed an IC50 of 1000 nM.

Turning to `Cc1cc(-c2n[nH]c3ccc(C(=O)N[C@H]4CCC[C@@](O)(Cn5cc6cc(F)ccc6n5)C4)cc23)ccn1` (relative stereo) [compound 99, N-[trans-3-[(5-fluoro-2H-indazol-2-yl)methyl]-3-hydroxycyclohexyl]-3-(2-methyl-4-pyridinyl)-1H-indazole-5-carboxamide], the IC50 stood at 1000 nM.

In turn, `Cc1cc(-c2n[nH]c3ccc(C(=O)N[C@H]4CCC[C@@](O)(Cn5ncc6ccc(F)cc65)C4)cc23)ccn1` (relative stereo) [compound 100, N-[trans-3-[(6-fluoro-1H-indazol-1-yl)methyl]-3-hydroxycyclohexyl]-3-(2-methyl-4-pyridinyl)-1H-indazole-5-carboxamide] returned an IC50 of 1000 nM.

In turn, `Cc1cc(-c2n[nH]c3ccc(C(=O)N[C@H]4CCC[C@@](O)(Cn5cc6cccc(F)c6n5)C4)cc23)ccn1` (relative stereo) [compound 102, N-[trans-3-[(7-fluoro-2H-indazol-2-yl)methyl]-3-hydroxycyclohexyl]-3-(2-methyl-4-pyridinyl)-1H-indazole-5-carboxamide] gave an IC50 of 704 nM.

The compound `Cc1cc(-c2n[nH]c3ccc(C(=O)N[C@H]4CCC[C@](O)(Cn5ncc6c(F)cccc65)C4)cc23)ccn1` (relative stereo) [compound 103, N-[cis-3-[(4-fluoro-1H-indazol-1-yl)methyl]-3-hydroxycyclohexyl]-3-(2-methyl-4-pyridinyl)-1H-indazole-5-carboxamide] yielded an IC50 of 21.3 nM.

The compound `Cc1cc(-c2n[nH]c3ccc(C(=O)N[C@H]4CCC[C@@](O)(Cn5ncc6cccc(F)c65)C4)cc23)ccn1` (relative stereo) [compound 104, N-[trans-3-[(7-fluoro-1H-indazol-1-yl)methyl]-3-hydroxycyclohexyl]-3-(2-methyl-4-pyridinyl)-1H-indazole-5-carboxamide] returned an IC50 of 74.3 nM.

Regarding `Cc1cc(-c2n[nH]c3ccc(C(=O)N[C@H]4CCC[C@@](O)(Cn5cc6ccc(C(F)(F)F)cc6n5)C4)cc23)ccn1` (relative stereo) [compound 105, N-[trans-3-hydroxy-3-[[6-(trifluoromethyl)-2H-indazol-2-yl]methyl]cyclohexyl]-3-(2-methyl-4-pyridinyl)-1H-indazole-5-carboxamide], the IC50 is 1000 nM.

In turn, `Cc1cc(-c2n[nH]c3ccc(C(=O)N[C@H]4CCC[C@](O)(Cn5ncc6ccc(C(F)(F)F)cc65)C4)cc23)ccn1` (relative stereo) [compound 106, N-[cis-3-hydroxy-3-[[6-(trifluoromethyl)-1H-indazol-1-yl]methyl]cyclohexyl]-3-(2-methyl-4-pyridinyl)-1H-indazole-5-carboxamide] gave an IC50 of 107 nM.

`Cc1cc(-c2n[nH]c3ccc(C(=O)N[C@H]4CCC[C@](O)(Cn5ncc6ccc(F)cc65)C4)cc23)ccn1` (relative stereo) [compound 107, N-[cis-3-[(6-fluoro-1H-indazol-1-yl)methyl]-3-hydroxycyclohexyl]-3-(2-methyl-4-pyridinyl)-1H-indazole-5-carboxamide] displayed an IC50 of 362 nM.
